# Measured values reported in US10253002B2, “Compounds and methods of treating infections” (Neoculi Pty Ltd., priority 2013, dated 2019).
# Several values for one entry are separate records, joined by “and”; a condition that tells them apart may be missing. Identical values can stand only once.
# Legend:
# Test in all cases: Broth microdilution MIC, Example 7 (NCL812 and analogues)
# Pseudomonas aeruginosa = format: cell-based; settings: 24 hours
# MRSA = format: cell-based, Staphylococcus aureus
# How it was run: (§1)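 MICs in μg/ml were read as growth inhibition by eye, checked at 600 nm absorbance against drug-free wells, following CLSI broth microdilution. Strains: two MRSA, two VRE; duplicates, repeated once more when results diverged beyond one dilution step.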
# Escherichia coli = format: cell-based; settings: 24 hours
# VRE = format: cell-based, Enterococcus spp.; settings: for activity against VRE among analogues: MIC testing, two VRE strains
# How it was run: as §1
# [1] = P. aeruginosa, duplicate lines per compound
# [2] = MRSA 1, duplicate lines per compound
# [3] = MRSA 2, duplicate lines per compound
# [4] = E. coli, duplicate lines per compound
# [5] = VRE 1, duplicate lines per compound
# [6] = VRE 2, duplicate lines per compound
# [7] = isolate MRSA 1, 1st and 2nd replicate rows
# [8] = isolate MRSA 2, 1st and 2nd replicate rows
# [9] = isolate VRE 1, 1st and 2nd replicate rows
# [10] = isolate VRE 2, 1st and 2nd replicate rows
Compound,"MIC (μg/ml) at 24 hours, P. aeruginosa (Pseudomonas aeruginosa; [1])","MIC (μg/ml) at 24 hours, MRSA 1 (MRSA; [2])","MIC (μg/ml) at 24 hours, MRSA 2 (MRSA; [3])","MIC (μg/ml) at 24 hours, E. coli (Escherichia coli; [4])","MIC (μg/ml) at 24 hours, VRE 1 (VRE; [5])","MIC (μg/ml) at 24 hours, VRE 2 (VRE; [6])","MIC (μg/ml) at 24 hours, P. aeruginosa (Pseudomonas aeruginosa; 1st and 2nd replicate rows)","MIC (μg/ml) at 24 hours, MRSA 1 (MRSA; [7])","MIC (μg/ml) at 24 hours, MRSA 2 (MRSA; [8])","MIC (μg/ml) at 24 hours, E. coli (Escherichia coli; 1st and 2nd replicate rows)","MIC (μg/ml) at 24 hours, VRE 1 (VRE; [9])","MIC (μg/ml) at 24 hours, VRE 2 (VRE; [10])",activity against VRE among analogues (VRE),"activity against MRSA among analogues (MRSA; MIC testing, two MRSA strains)"
Cl.N=C(NN=Cc1ccc(-c2ccccc2)cc1)NN=Cc1ccc(-c2ccccc2)cc1 [NCL112],>128 µg/mL,>128 µg/mL,128 µg/mL,>128 µg/mL,64 µg/mL,32 µg/mL,,,,,,,greatest activity,
CC(=NNC(=N)NN)c1ccc(Cl)cc1.Cl [NCL069],,,,,,,>128 µg/mL,128 µg/mL,128 µg/mL,>128 µg/mL,128 µg/mL,64 µg/mL,greatest activity,greatest activity
CCO/C(N)=N/N=C(\C)c1ccc(Cl)cc1 [NCL 162],>128 µg/mL,>128 µg/mL,128 µg/mL,>128 µg/mL,>128 µg/mL,>128 µg/mL,,,,,,,,
Cl.N=C(NN=Cc1ccc(O)c(O)c1O)NN=Cc1ccc(O)c(O)c1O [NCL105],>128 µg/mL,64 µg/mL,>128 µg/mL,>128 µg/mL,64 µg/mL,>128 µg/mL,,,,,,,greatest activity,
CCCCC(=NNC(=N)NN=C(CCCC)c1ccc(Cl)cc1)c1ccc(Cl)cc1.Cl [NCL 154],>128 µg/mL,>128 µg/mL,>128 µg/mL,>128 µg/mL,>128 µg/mL,>128 µg/mL,,,,,,,,
Cl.N=C(NC(=O)c1ccccc1)N(N=Cc1ccccc1Cl)C(=O)c1ccccc1 [NCL090],>128 µg/mL,>128 µg/mL,>128 µg/mL,>128 µg/mL,>128 µg/mL,>128 µg/mL,,,,,,,,
CC(=NNC(=N)NN=C(C)c1ccc(N2CCNCC2)cc1)c1ccc(N2CCNCC2)cc1.Cl [NCL 161],>128 µg/mL,64 µg/mL and 128 µg/mL,128 µg/mL,>128 µg/mL,128 µg/mL,128 µg/mL,,,,,,,,

# Further lines, with some results ahead:
"MIC (μg/ml) at 24 hours, P. aeruginosa (Pseudomonas aeruginosa; [1])","MIC (μg/ml) at 24 hours, MRSA 1 (MRSA; [2])","MIC (μg/ml) at 24 hours, MRSA 2 (MRSA; [3])","MIC (μg/ml) at 24 hours, E. coli (Escherichia coli; [4])","MIC (μg/ml) at 24 hours, VRE 1 (VRE; [5])","MIC (μg/ml) at 24 hours, VRE 2 (VRE; [6])","MIC (μg/ml) at 24 hours, P. aeruginosa (Pseudomonas aeruginosa; 1st and 2nd replicate rows)","MIC (μg/ml) at 24 hours, MRSA 1 (MRSA; [7])","MIC (μg/ml) at 24 hours, MRSA 2 (MRSA; [8])","MIC (μg/ml) at 24 hours, E. coli (Escherichia coli; 1st and 2nd replicate rows)","MIC (μg/ml) at 24 hours, VRE 1 (VRE; [9])","MIC (μg/ml) at 24 hours, VRE 2 (VRE; [10])",Compound,activity against VRE among analogues (VRE),"activity against MRSA among analogues (MRSA; MIC testing, two MRSA strains)"
,,,,,,>128 µg/mL,>128 µg/mL,>128 µg/mL,>128 µg/mL,>128 µg/mL,>128 µg/mL,COc1cccc(/C=N/NC(N)=O)c1 [NCL059],,
,,,,,,>128 µg/mL,>128 µg/mL,>128 µg/mL,>128 µg/mL,>128 µg/mL,>128 µg/mL,COc1cccc(/C=N/NC(=O)N/N=C/c2cccc(OC)c2)c1 [NCL010],,
,,,,,,>128 µg/mL,>128 µg/mL,>128 µg/mL,>128 µg/mL,>128 µg/mL,128 µg/mL,Cl.N=C(N)N/N=C/c1ccccc1Cl [NCL015],,
,,,,,,>128 µg/mL,>128 µg/mL,>128 µg/mL,>128 µg/mL,>128 µg/mL,>128 µg/mL,Cl.N#Cc1ccc(/C=N/NC(=N)N)cc1 [NCL031],,
,,,,,,>128 µg/mL,>128 µg/mL,>128 µg/mL,>128 µg/mL,>128 µg/mL,>128 µg/mL,O=C(N/N=C/c1ccccc1F)N/N=C/c1ccccc1F [NCL005],,
,,,,,,>128 µg/mL,>128 µg/mL,>128 µg/mL,>128 µg/mL,>128 µg/mL,>128 µg/mL,O=C(N/N=C/c1ccc(F)cc1)N/N=C/c1ccc(F)cc1 [NCL003],,
